These are literature values, as cited in paper PMC9781020, “Anti-Mycobacterial N-(2-Arylethyl)quinolin-3-amines Inspired by Marine Sponge-Derived Alkaloid” (Molecules, 2022).

In general, MIC refers to the lowest concentration that inhibits growth of the organism.

For the data set, the system named is drug-sensitive M. tuberculosis H37Rv and extensively drug-resistant M. tuberculosis strains. Particulars: cited from earlier work.

As to `COC1=Cc2ccnc3c(NCCc4ccccc4)cnc(c23)C1=O` [Compound 1, 3-(phenethylamino)demethyl(oxy)aaptamine, reference compound], the MIC is 1.5 to 6.0 µM.
